For assay [1], the system named is Wnt1-stimulated β-catenin signaling in HEK293-TB cells. The assay is described as follows: luciferase reporter assay, HEK293-TB cells transfected with pCDNA3.2-Wnt1. It is filed as cell-based. (In general: A reporter such as luciferase makes a cellular process visible.)
Assay [2] deals with T1, hFZD7 CRD-His (Homo sapiens, UniProt O75084).
T1 construct: hFZD7 CRD-His [Gln33-Gly168] was expressed as a secreted protein in Trichoplusia ni cells expressing EndoH; made in house; host or cells: Trichoplusia ni cells expressing EndoH, treated with Kifunensine (baculovirus)
The experiment in a line: SEC-MALS of hFZD7 CRD-His incubated with peptide. Format: binding. Here is the method:
Samples were resolved by a Superdex S200 3.2/300 column (General Electric Healthcare Life Science, Pittsburgh, Pa.; cat. no. 28990946) at 0.15 mL/min in 150 mM NaCl, 50 mM Tris-HCl pH 7.5 buffer with 1% DMSO final concentration. Runs were performed on a 1260 infinity HPLC (Agilent Technology, Santa Clara, Calif.) connected to a Dawn Heleos-II multi-angle static Light Scattering (MALS) detector and a Optilab T-rEX differential Refractive Index (dRI) detector (Wyatt Technologies, Santa Barbara, Calif.).
Samples were resolved by a Superdex S200 3.2/300 column (General Electric Healthcare Life Science, Pittsburgh, Pa.; 28990946) at a 0.15 mL/min in 150 mM NaCl, 50 mM Tris-HCl pH 7.5 buffer with 1% DMSO final concentration. Column was connected to a 1260 infinity HPLC (Agilent Technology, Santa Clara, Calif.) connected to a Dawn Heleos-II Multi-Angle static Light Scattering (MALS) detector and the Optilab T-rEX differential Refractive Index (dRI) detectors (Wyatt Technologies, Santa Barbara, Calif.).
(In general: In gel filtration, larger molecules generally elute earlier.)

In assay [3] the test system is receptor-independent β-catenin signaling in 6-BIO-treated HEK293-TB cells. The assay is described as follows: epistasis study, HEK293-TB cells stimulated with 6-BIO. The conditions noted are these: 10 μM 6-BIO, 6 hr; FIG. 2E. Format: cell-based.
The target in assay [4] is T2, Wnt5a binding to FZD7 CRD (Homo sapiens, UniProt O75084).
T2 construct: hFZD7 CRD-Fc (cat no. 6178-FZ); purchased R&D systems 6178-FZ
The experiment in a line: ELISA of Wnt5a binding to FZD7 CRD, Fz7-21-derived peptide dimers. The conditions noted are these: FIGS. 23A-23J. Here is the method:
384-well Maxisorp plates (cat. no. 464718; Thermo Scientific) were incubated with 30 μL of Neutravidin (cat. no. 31000, Thermo Scientific; 2 μg/mL in PBS) overnight at 4° C. Plates were then washed with PBST and blocked with PBS/1% BSA for 1 hour at RT and then washed with PBST prior to further processing. The binding assay was conducted in 96 well plates (cat no. 83007-374; VWR) which were blocked with PBS/1% BSA overnight at 4° C. hFZD4 CRD-Fc or hFZD7 CRD-Fc (63 ng/mL) were incubated with either Bio-Wnt3a (25 ng/mL) or Bio-Wnt5a (50 ng/mL) in the presence of 4-fold serial dilutions of the indicated peptide in PBS overnight at 4° C. All assays included hFZD9 CRD-mIgG2A protein as a negative control. hFZD7 CRD-His was suspended in 150 mM NaCl, 50 mM Tris-HCl at pH 7.5 and when used in assays an equal volume of the same buffer control was used. The binding assay mixtures were transferred to the Neutravidin coated plates and incubated for ˜1 h at RT. […] The signal was developed with the addition of TMB reagent (following the manufacturer's recommendation; KPL; 50-76-00) for 15 min prior to the addition of an equal volume of 1 M phosphoric acid for 10 min Absorbance was measured at 450 nm using a Tekan M1000 plate reader. […]
(In general: ELISA stands for enzyme-linked immunosorbent assay.)

Assay [5] deals with Wnt3a-stimulated β-catenin signaling in HEK293-TB cells. The experiment in a line: luciferase reporter assay, HEK293-TB cells transfected with pCDNA3.2-Wnt3a. Format: cell-based.

The results in this text go back to US20190359653A1, “SELECTIVE PEPTIDE INHIBITORS OF FRIZZLED” (Genentech, Inc., priority 2016, published 2019).

Turning to “LPSDDLEFWSHVMY [Fz7-21S, negative control]”, the “inhibition of Wnt1 signaling” value in assay [1] is “not found to inhibit”. The “ΔMW (kDa)” value in assay [2] (1:10, relative to the DMSO control) was determined as 2.6 kDa. Also, in assay [2] (protein:peptide 1:10), the “MW (kDa)” value is given as 23.5 kDa. The “inhibition of Wnt signaling in 6-BIO-treated cells” value in assay [3] is on record as “Neither Fz7-21 nor Fz7-21S inhibited”. Further, in assay [4], the “effect on recruitment of Wnt5a to FZD7 CRD” value is listed as “no effect”. In addition, the “inhibition of Wnt3a signaling” value in assay [5] is given as “not found to inhibit”.
